The text below walks through data of US20240335431A1, “1-H-PYRROLO[2,3-c]PYRIDINE COMPOUNDS” (Acerta Pharma B.V., priority 2023, published 2024).

A short description of series [1]: Human liver microsomes (HLMs) intrinsic clearance assay. The series is classed as in vitro ADME. The note with it: human, microsomes; for HLM CLint: 1 µM, pH 7.4. As to the method: Human liver microsomes (HLMs) were obtained from Corning (UltraPool 150 donors) at a concentration of 20 mg/mL protein. HLMs were stored at −80° C. until use and prior to use, thawed in a 37° C. water bath and then stored on wet ice. DMSO and NADPH were sourced from Solarbio S&T Co Ltd.
2 mL of 10 mM DMSO stock solutions of test compound were added to 198 mL acetonitrile to produce […] concentration. 1325 mL of 20 mg/mL HLM were added to 22260 mL of phosphate buffer to produce the HLM mixture. An 8.334 mg/mL solution of NADPH was prepared in 100 mmol/L pH 7.4 phosphate buffer.
222.5 mL of the HLM mixture and 25 mL of the 10 mM NADPH were added into the incubation plates (1 mL 96 well deep well plate from Thermo). The mixture was vortexed for 10 seconds at 1000 rpm. The incubation plate was pre-warmed in a water bath at 37° C. for 8 minutes. 2.5 mL of the […] stocks of test compound was added to initiate the reaction. The mix was vortexed for 12 seconds at 1000 rpm and incubated at 37° C. The incubation mixture (250 mL) contained 1 mg/mL HLM, 1 mmol/L NADPH and […].
The reaction was quenched by transferring 20 mL of the incubation mixture at 0.5, 5, 10, 15, 20 and 30 minutes into the quenching plate containing 100 mL of cold stop solution (acetonitrile containing internal standards). The plate was vortexed at 800 rpm for 2 minutes.
The quenching plates were centrifuged for 20 minutes at 4000 rpm and 4° C. 40 mL of the supernatant was transferred into a 96-well analysis plate containing 160 mL of water. The analysis plate was shaken at 1000 rpm for 2 minutes and the samples analysed by LC-MS/MS.
Peak areas were determined from extracted ion chromatograms. Percent parent remaining was calculated from peak area of test compound. The slope value, k, was determined by linear regression of the natural logarithm of percent parent remaining versus incubation time. The in vitro half-life (t1/2) was determined from the slope value by the equation: […]
Conversion of the in vitro half-life (min) into in vitro CLint (mL/min/mg proteins) was completed using the equation: […]
A general note: Microsomes from liver hold many membrane-bound enzymes, among them those of drug oxidation.

The subject of another series is HEL cells. The series can be described thus: Proliferation assay, HEL control cell line (CellTiter-Glo, 7 days). The series is classed as cell-based, human. The note with it: Homo sapiens, HEL, 168 h. The procedure: (§1) The anti-proliferative effect of compounds was tested in human leukaemia cell lines. The cell lines […] and MV4; 11 each harbor an MLL translocation expressing the MLL fusion proteins MLL-AF9 and MLL-AF4, respectively. Each also express the wildtype protein from the second allele. OCI-AML3 cells carrying the NPM1c gene mutation were also tested.
(§2) MOLM-13 and HEL cells were cultured in RPMI 1640 (Gibco) supplemented with 10% FBS (Gibco) and 1% Pen/Strep (Gibco). MV4; 11 cells were cultured in IMDM (Gibco) supplemented with 10% FBS (Gibco) and 1% Pen/Strep (Gibco). OCI-AML3 cells were cultured in MEMa (Gibco) supplemented with 20% FBS (Gibco) and 1% Pen/Strep (Gibco).
(§3) To assess proliferative effects, 125 MOLM-13 cells, 300 MV4; 11 cells, 75 OCI-AML3 cells, and 200 HEL cells were seeded in 40 μL media per well in 384-well ViewPlates (Perkin Elmer, 6007480). Cell seeding numbers were chosen based on growth curves to ensure linear growth throughout the experiments. Test compounds were added at 3.16-fold serial dilutions in DMSO from […] and DMSO content was normalized to 0.1%. Cells were incubated for 7 days at 37° C. and 5% CO2. A day 0 plate was seeded for each cell line and used as a standard control.
(§4) To measure cell viability, CellTiter-Glo 2.0 (Promega, G9242) luminescent growth indicator was used. 10 μL CellTiter-Glo reagent was added per well. Plates were placed on a plate shaker for 2 minutes in the dark and left to incubate off the shaker for another 8 minutes in the dark, for a total of 10 minutes. Plates were read using an EnVision plate reader (Perkin Elmer) using the Luminescence aperture and a measurement time of 0.1 second.
(§5) Data were analyzed in Genedata Screener®. IC50 values were determined by plotting % inhibition versus log compound concentration and using a one site dose response model. Raw data signals were normalized using 0.1% DMSO media only as background control, 0.1% DMSO with cells no compound as 100% viability (maximum signal), and day 0 0.1% DM with cells no compound as 0% viability (minimum signal).
For orientation: In ATP-based viability assays light output follows the ATP content of the culture.

Another series has as its system MOLM-13 cells. Briefly: Proliferation assay, MOLM-13 (CellTiter-Glo, 7 days). The series is classed as cell-based, human. As to the method:
as §1, §2, §3, §4, §5

Another series has as its system MV4;11 cells. Briefly: Proliferation assay, MV4;11 (CellTiter-Glo, 7 days). The series is classed as cell-based, human. The note with it: Homo sapiens, MV4-11, 168 h, read-out: MV-4-11 IC50. As to the method:
as §1, §2, §3, §4, §5

For another series, the system named is OCI-AML3 cells. Briefly: Proliferation assay, OCI-AML3 (CellTiter-Glo, 7 days). The series is classed as cell-based, human. The note with it: Homo sapiens, OCI-AML-3, 168 h. The procedure: as §1, §2, §3, §4, §5
Another series has as its target muscarinic M2 receptor (Homo sapiens (Human), UniProt P08172). Briefly: Muscarinic M2 receptor binding assay (assay 1). The note with it: [3H]AF-DX 384 2 nM, Cheng Prusoff. The procedure:
Cell membrane homogenates (60 μg protein) were incubated for 60 minutes at 22° C. with 2 nM [3H]AF-DX 384 in the absence or presence of the test compound in a buffer containing 50 mM Tris-HCl (pH 7.4), 120 mM NaCl, 5 mM KCl, 5 mM MgCl2, and 1 mM EDTA. Nonspecific binding was determined in the presence of 1 μM atropine. Following incubation, the samples were filtered rapidly under vacuum through glass fiber filters (GF/B, Packard) presoaked with 0.3% PEI and rinsed several times with ice-cold 50 mM Tris-HCl using a 96-sample cell harvester (Unifilter, Packard). The filters were dried then counted for radioactivity in a scintillation counter (Topcount, Packard) using a scintillation cocktail (Microscint 0, Packard). The results were expressed as a percent inhibition of the control radioligand specific binding, from which the Ki was calculated. Data were analyzed using software developed at Cerep (Hill software) and validated by comparison with data generated by the commercial software SigmaPlot®4.0 for Windows® (© 1997 by SPSS Inc.). The inhibition constant, Ki, was calculated using the Cheng Prusoff equation:
where L=concentration of ligand in the assay, and Kd=affinity of the ligand for the receptor. The standard reference compound was methoctramine, which was tested in each experiment at several concentrations to obtain a competition curve from which its IC50 was calculated.

The target in a further series is hERG (Homo sapiens (Human), UniProt Q12809). The series can be described thus: hERG assay 1 (standard), SyncroPatch 384PE. The series is classed as cell-based. The note with it: CHO cells, room temperature, up to 40 uM. As to the method: Experiments were performed on the SyncroPatch 384PE (Nanion Technologies) high throughput patch clamp platform at room temperature and used medium resistance chips with 4 patch holes per site. hERG-expressing Chinese hamster ovary K1 (CHO) cell line was used in assay-ready format and kept in liquid nitrogen until use. 2 vials of cells (10×10^6 cells per vial) were thawed and added to 20 ml Hepes-buffered saline solution (HBSS). HBSS comprised 140 mM NaCl, 4 mM KCl, 10 mM HEPES and 5 mM Glucose (pH 7.4). The internal patch clamp solution was KF 120 mM, KCl 20 mM, HEPES 10 mM, EGTA 10 mM, and 25 μM Escin (pH 7.2). After the initial sealing process was complete, a seal enhancer solution comprising HBSS supplemented with 10 mM CaCl2 and 1 mM MgCl2 was applied to cells. The external solution was then exchanged (4 times) for external patch clamp solution comprising NaCl 80 mM, KCl 4 mM, HEPES 10 mM, CaCl2 2 mM, MgCl2 1 mM, glucose 5 mM, and NMDG 60 mM (pH7.4). All compounds were dispensed from initial 10 mM DMSO stocks. An industry standard +60/−40 mV voltage protocol was applied every 15 seconds. Compounds were tested in a 6-point cumulative assay (final DMSO concentration 0.33%), with a concentration range of 139 nM to 40 uM. Data were analyzed in Genedata Screener®. IC50 values were determined by plotting % inhibition versus log compound concentration and using a one site dose response model. Only wells that passed acceptance criteria for this platform were used in this analysis (30 MegaOhm seal resistance, Z prime >0.4 and current size >0.2 nA).
(The hERG channel carries a current that helps repolarise heart muscle cells.)

Each structure is given as a SMILES string. Like-named read-outs stand apart in the source and are kept apart here.

One may read the IC50 as the concentration that inhibits the measured activity by half. What is called Ki is a dissociation constant, usually derived from enzyme kinetics or from competition with a known ligand. A low value points to a stronger hold on the target.

Sequence of hERG (Q12809 whole entry): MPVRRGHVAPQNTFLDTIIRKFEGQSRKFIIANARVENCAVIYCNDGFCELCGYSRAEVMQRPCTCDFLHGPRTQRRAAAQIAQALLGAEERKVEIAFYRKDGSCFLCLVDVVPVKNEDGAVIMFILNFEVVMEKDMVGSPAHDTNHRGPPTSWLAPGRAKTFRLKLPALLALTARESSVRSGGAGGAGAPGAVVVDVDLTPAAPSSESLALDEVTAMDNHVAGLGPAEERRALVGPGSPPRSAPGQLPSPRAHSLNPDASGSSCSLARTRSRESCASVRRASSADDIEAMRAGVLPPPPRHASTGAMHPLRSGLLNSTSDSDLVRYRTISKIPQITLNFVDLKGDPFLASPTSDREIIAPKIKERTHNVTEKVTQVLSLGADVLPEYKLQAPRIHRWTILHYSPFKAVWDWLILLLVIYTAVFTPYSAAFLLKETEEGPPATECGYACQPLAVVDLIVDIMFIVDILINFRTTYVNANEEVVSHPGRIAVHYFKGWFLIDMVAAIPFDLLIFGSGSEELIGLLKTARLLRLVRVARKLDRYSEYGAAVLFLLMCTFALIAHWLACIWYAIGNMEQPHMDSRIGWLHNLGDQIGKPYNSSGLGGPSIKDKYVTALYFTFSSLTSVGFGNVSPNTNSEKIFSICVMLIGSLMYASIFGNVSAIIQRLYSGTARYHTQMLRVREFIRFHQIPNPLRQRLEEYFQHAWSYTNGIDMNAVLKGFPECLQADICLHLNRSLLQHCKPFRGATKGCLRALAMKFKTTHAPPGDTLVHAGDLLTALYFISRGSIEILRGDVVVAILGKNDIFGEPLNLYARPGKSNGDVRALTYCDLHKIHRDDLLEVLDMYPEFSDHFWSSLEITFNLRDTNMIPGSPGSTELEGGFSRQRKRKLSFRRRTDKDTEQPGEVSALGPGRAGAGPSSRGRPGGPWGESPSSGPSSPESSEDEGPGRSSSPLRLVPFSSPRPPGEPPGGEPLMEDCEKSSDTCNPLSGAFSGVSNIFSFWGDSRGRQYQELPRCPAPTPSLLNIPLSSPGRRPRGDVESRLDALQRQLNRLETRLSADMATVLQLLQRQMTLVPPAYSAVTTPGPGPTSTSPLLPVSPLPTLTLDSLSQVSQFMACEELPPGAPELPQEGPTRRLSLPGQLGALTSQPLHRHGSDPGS
Sequence of muscarinic M2 receptor (P08172 whole entry): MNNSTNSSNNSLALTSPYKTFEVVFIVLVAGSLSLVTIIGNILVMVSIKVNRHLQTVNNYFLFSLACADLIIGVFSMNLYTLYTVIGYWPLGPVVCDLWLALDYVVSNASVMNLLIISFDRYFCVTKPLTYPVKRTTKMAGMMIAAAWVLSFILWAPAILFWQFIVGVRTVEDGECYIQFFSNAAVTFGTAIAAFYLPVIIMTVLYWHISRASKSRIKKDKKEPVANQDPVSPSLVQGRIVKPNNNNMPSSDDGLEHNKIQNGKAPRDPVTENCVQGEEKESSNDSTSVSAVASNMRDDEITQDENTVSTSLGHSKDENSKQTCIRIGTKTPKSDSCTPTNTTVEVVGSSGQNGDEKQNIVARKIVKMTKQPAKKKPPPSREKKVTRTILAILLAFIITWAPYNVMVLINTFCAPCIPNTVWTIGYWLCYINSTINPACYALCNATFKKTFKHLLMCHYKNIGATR

For the compound `CC(C)N(C(=O)c1cc(F)ccc1-n1cc(C(=O)[C@@H]2CCCN(C(=O)[C@H]3N[C@@H]4CC[C@H]3C4)CC2)c2ccncc21)C(C)C` (relative stereo) [Example 45, 2-(3-((R*)-1-((1R,3S,4S)-2-Azabicyclo[2.2.1]heptane-3-carbonyl)azepane-4-carbonyl)-1H-pyrrolo[2,3-c]pyridin-1-yl)-5-fluoro-N,N-diisopropylbenzamide 1·formic acid], the microsomal CLint at 1 µM in series [1] (pH 7.4, HLM CLint) was found to be 139 µL/min/mg. Also, the IC50 in the series on HEL cells was greater than 10000 nM; in the series on MOLM-13 cells (Homo sapiens, MOLM-13, 168 h), 109 nM.

For the compound `CCN(C(=O)c1cc(F)ccc1-n1c(C)c(C(=O)C2CCN(C(=O)[C@@H]3CCC(C)(C)N3)CC2)c2ccncc21)C(C)C` (single isomer, unassigned) [Example 50-1], the “HLM CLint” value in series [1] was determined as 183 µL/min/mg. For the same compound, the IC50 with HEL cells was greater than 10000 nM; in the series on MOLM-13 cells, 2070 nM.

On to `Cc1c(C(=O)[C@@H]2CCN(C(=O)[C@H]3NC[C@@H]4C[C@@H]43)[C@@H](C)C2)c2ccncc2n1-c1ccc(F)cc1C(=O)N(CC(F)(F)F)C(C)C` (single isomer, unassigned) [Example 53-1, 2-(3-((2R*,4S*)-1-((1S,2S,5R)-3-Azabicyclo[3.1.0]hexane-2-carbonyl)-2-methylpiperidine-4-carbonyl)-2-methyl-1H-pyrrolo[2,3-c]pyridin-1-yl)-5-fluoro-N-isopropyl-N-(2,2,2-trifluoroethyl)benzamide], for which, in series [1], the “HLM CLint” value amounted to 116 µL/min/mg. Moreover, the IC50 is greater than 10000 nM in the series with HEL cells and 3270 nM in the series with MOLM-13 cells.

`Cc1c(C(=O)C2CCN(C(=O)[C@@H]3CCC4(CC4)N3)CC2)c2ccncc2n1-c1ccc(F)cc1C(=O)N1[C@H](C)COC[C@H]1C` (single isomer, unassigned) [Example 58-1]: the microsomal CLint at 1 µM in series [1] (pH 7.4, 1 mg/mL HLM, NADPH, read-out: HLM CLint) came out at 128 µL/min/mg. The concentration for half-maximal inhibition (IC50) with HEL cells and in the series on MOLM-13 cells was greater than 10000 nM throughout.

Turning to `CC(C)N(C(=O)c1cc(F)ccc1-n1cc(C(=O)C2CN(C(=O)[C@H]3N[C@@H]4CC[C@H]3C4)C2)c2ccnnc21)C(C)C` [Example 14, 2-(5-(1-((1R,3S,4S)-2-Azabicyclo[2.2.1]heptane-3-carbonyl)azetidine-3-carbonyl)-7H-pyrrolo[2,3-c]pyridazin-7-yl)-5-fluoro-N,N-diisopropylbenzamide 1·formic acid], the IC50 in the series on MV4;11 cells was 345 nM; in the series on HEL cells, greater than 10000 nM; in the series with MOLM-13 cells (Homo sapiens, MOLM-13, 168 h), 476 nM; with OCI-AML3 cells, 626 nM. This compound gave a microsomal CLint at 1 µM in series [1] (pH 7.4, HLM CLint) of 38 µL/min/mg.

Consider `CCN(C(=O)c1cc(F)ccc1-n1cc(C(=O)C2CCN(C(=O)[C@H]3NC4CCC3CC4)CC2)c2ccncc21)C(C)C` [Example 29, (S)-2-(3-(1-(2-Azabicyclo[2.2.2]octane-3-carbonyl)piperidine-4-carbonyl)-1H-pyrrolo[2,3-c]pyridin-1-yl)-N-ethyl-5-fluoro-N-isopropylbenzamide], for which, on muscarinic M2 receptor, the Ki is 200 nM. Further, the IC50 with MV4;11 cells is 57 nM; in the series with HEL cells, greater than 10000 nM; in the series on MOLM-13 cells (Homo sapiens, MOLM-13, 168 h), 58 nM; against hERG it was greater than 40000 nM. The compound also returned a microsomal CLint at 1 µM in series [1] (pH 7.4, HLM CLint) of 26 µL/min/mg.

Take `Cc1c(C(=O)C2CCN(C(=O)[C@@H]3CC[C@H](C)N3)CC2)c2ccncc2n1-c1ccc(F)cc1C(=O)N(C(C)C)C(C)C` [Example 60, 5-Fluoro-N,N-diisopropyl-2-(2-methyl-3-(1-((2S,5S)-5-methylpyrrolidine-2-carbonyl)piperidine-4-carbonyl)-1H-pyrrolo[2,3-c]pyridin-1-yl)benzamide]: the IC50 in the series on MV4;11 cells was 88 nM; in the series on HEL cells, greater than 10000 nM; in the series with MOLM-13 cells (Homo sapiens, MOLM-13, 168 h), 71 nM; on hERG it was greater than 40000 nM. In series [1] (pH 7.4, HLM CLint), the microsomal CLint at 1 µM was 106 µL/min/mg.

For `Cc1c(C(=O)C2CCN(C(=O)[C@@H]3CC[C@@H](C)N3)CC2)c2ccncc2n1-c1ccc(F)cc1C(=O)N(C(C)C)C(C)C` [Example 61, 5-Fluoro-N,N-diisopropyl-2-(2-methyl-3-(1-((2S,5R)-5-methylpyrrolidine-2-carbonyl)piperidine-4-carbonyl)-1H-pyrrolo[2,3-c]pyridin-1-yl)benzamide], the IC50 in the series on MV4;11 cells was 114 nM; with HEL cells it was greater than 10000 nM; in the series on MOLM-13 cells (Homo sapiens, MOLM-13, 168 h), 92 nM; on hERG, greater than 40000 nM. In addition, in series [1] (pH 7.4, HLM CLint), the microsomal CLint at 1 µM came out at 83 µL/min/mg.
